The subject of one series is Smad 1/5/8. Nature of the series: Smad 1/5/8 phosphorylation and nuclear translocation in HK-2 cells. The series is classed as cell-based, human. The protocol:
Human renal proximal tubule epithelial cells (HK-2) were incubated in the presence (right panel) and absence (left panel) of THR-123. The cells were washed, and then incubated with the primary antibody against phospho Smad 1/5/8, followed by immunostaining with a fluorescently labeled secondary antibody. The significance of pSmad 1/5/8 in renal fibrosis is tied to BMP7 suppression of TGF-β-dependent profibrotic pathways, which are central to renal fibrotic injury. Specifically, BMP7 suppression of such TGF-β-dependent profibrotic pathways is mediated in part by the activation of downstream BMP target proteins, Smad 1, 5, and 8. (Manson S R et al., J. Urol. 85:2523-30, 2011).

The test system of series [1] is mice with nephrotoxic serum nephritis. In words: Nephrotoxic serum nephritis (NTN) in CD1 mice. The series is classed as in vivo. An excerpt:
FIG. 59A-FIG. 59M AA-123 Reverses Renal Fibrosis in Mice with Nephrotoxic Serum Nephritis. FIG. 59A-FIG. 59D. Representative Masson's trichrome staining picture of kidney sections from untreated control mice (FIG. 59A); 6 weeks NTN (FIG. 59B); 9 weeks post NTN (FIG. 59C); and 9 weeks NTN with THR-123 administered starting at 6 weeks NTN (FIG. 59D), Original magnification ×200. FIG. 59E-FIG. 59G. Morphometric analysis from control mice (0 weeks) (n=5), mice after 1 (n=6), 3 (n=8), and 6 weeks following induction of NTN (n=6), and mice at 9 weeks NTN with THR-123 administered starting 6 weeks NTN (THR-123 (6-9W) (n=6)), assessing percent of glomerulosclerosis score (FIG. 59E), tubular atrophy index (FIG. 59F), and fibrosis index (FIG. 59G). FIG. 59H. Blood Urea Nitrogen measurement for mice 6 weeks NTN (n=3), 9 weeks NTN (n=5), and 9 weeks NTN with THR-123 administered starting at 6 weeks NTN (n=5) FIG. 59I-FIG. 59L. E-cadherin/FSP1 immunolabeling of kidney from control untreated mice (FIG. 59I), 6 weeks NTN (FIG. 59J), 9 weeks NTN (FIG. 59K), and 9 weeks NTN with THR-123 administered starting at 6 weeks NTN (FIG. 59L). Representative results are shown. FIG. 59M. Percent of E-cadherin/FSP1 double positive tubule was assessed by counting the number of double-labeled tubules, 500 tubules per slide, 5 slides per experimental group. Data are expressed as mean±s.e.m. in the graph.
NTN is induced in C57BL6 mice by pre-immunizing with a subcutaneous injection of normal sheep IgG (200 μg) in complete Freund's adjuvant (day 1) followed by intravenous injection of nephrotoxic serum injection (50 μl, from day 5 to day 7). Mice were sacrificed at 1, 3, 6, 9 weeks after induction of NTN. Total RNA was isolated from the kidney by Trizol/Invitrogen PureLink RNA Mini Kit for RNA extraction. Ten nanogram of total RNA was used for generating complementary cDNA using the TaqMan One-Step RT-PCR Master Mix (Applied Biosystems, Foster City, Calif.). Quantitative PCR was performed to analyze the gene expression profile of BMP7, BMP receptors Alk2, Alk-3, Alk6 and BMPR II, and to BMP-binding proteins chordin, criml, fibrillinl, follistatin, KCP, USAG1, gremlin and noggin are analyzed (Table: Primer Sequences (below)) using ABIprism 7000 (Applied Biosystems).
NTN is induced in CD1 mice by the method described above. Six weeks after NTN induction, THR-123 (p.o. 5 mg/Kg/day) are started until 9 weeks. Mice are sacrificed at week 1, week 3, week 6 and week 9.
For the analysis of glomerulosclerosis, 20 glomeruli per each mouse were randomly picked and each glomerulus was evaluated according to the following scale: no sclerosis 0, 0 to ¼ of a glomerular surface area was sclerosed 1, ¼ to ½ was sclerosed 2, ½ to ¾ was sclerosed 3 and more than ¾ was sclerosed or with crescent 4. A glomerulosclerosis score was calculated as an arithmetic mean of these numbers for each mouse. The glomerulosclerosis scores from all mice were arbitrarily divided into 4 groups; that is no disease, mild, moderate and severe. The percentage of mice with these 4 groups was calculated.
For tubular atrophy score, ten 200× visual fields were randomly selected for each slide and tubular atrophy was assessed according to the following scale: no atrophy 0, 0 to ¼ of a visual field was occupied by atrophied tubules 1, ¼ to ½ 2, ½ to ¾ 3 and more than ¾ 4. A tubular atrophy score was then calculated as an arithmetic mean of these numbers per each mouse. The tubular atrophy scores from all mice were arbitrarily divided into 4 groups; that is no disease, mild, moderate and severe. The percentage of mice with these 4 groups was calculated and shown on the graph.
For the analysis of interstitial fibrosis, ten 200× visual fields were also selected randomly for each Masson trichrome stained kidney section and interstitial fibrosis was evaluated according to the following scale: no fibrosis 0, 0 to ¼ of a visual field was affected by interstitial fibrosis 1, ¼ to ½ 2, ½ to ¾ 3 and more than ¾ 4. […]

Series [2] is described as follows: Pharmacokinetics and tissue distribution of 125I-labeled THR-123. The series is classed as in vivo, Wistar rats. An excerpt: FIG. 45A-FIG. 45G Pharmacokinetics of THR-123. FIG. 45A. BMP7 structure figure with the residue weights resulting from the analysis mapped on to it. FIG. 45B, FIG. 45C. Radio-ligand receptor binding assays specific for individual type I receptors, Alk-3 (FIG. 45B) and Alk-6 (FIG. 45C). Highly purified extra-cellular domain (ECD) of Alk-3 or Alk-6 (expressed as a fusion protein with Fc domain) served as a receptor. In each assay purified receptor was immobilized on each well and peptide analog or unlabeled BMP7 was added, followed by ^125I-labeled BMP7. Radiolabeled BMP7 complex was counted in an auto-gamma counter. Results were expressed as the mean±s.e.m. Unlabeled BMP7, which served as a positive control in both assays, gave linear dose-related response curves. FIG. 45D, FIG. 45E. Concentration of THR-123 in systemic circulation of Wistar rats following iv injection of THR-123 (^125I-Tyr) via the tail vein determined by total radioactivity measurement. […] FIG. 45F. Tissue distribution of ^125I-THR-123. Six hours after intravenous administration of ^125I labeled-THR-123 in rats at a dose of 6.25 mg/kg-body weight, tissues were harvested and analyzed by automatic gamma well counter. […] FIG. 45G. Oral administration of THR-123 and elimination of THR-123 from the body. Radioactivity of orally administrated ^125I labeled-THR-123 at a dose of 5 mg/kg body weight was localized in the kidney between 1 and 6 hours after administration and peaked at around 3 hours.
The persistence of THR-123 in systemic circulation was evaluated using iv-administered ^125I-labeled compound and following the radioactivity decay.

Positions of bridges follow the written chain, without caps; N, C: chain ends.

On to “(H)-CYFDDSSNVLCKKYRS-(OH) (H-CYFDDSSNVLCKKYRS-OH; disulfide 1-11; SMILES CC(C)C[C@@H]1NC(=O)[C@H](C(C)C)NC(=O)[C@H](CC(N)=O)NC(=O)[C@H](CO)NC(=O)[C@H](CO)NC(=O)[C@H](CC(=O)O)NC(=O)[C@H](CC(=O)O)NC(=O)[C@H](Cc2ccccc2)NC(=O)[C@H](Cc2ccc(O)cc2)NC(=O)[C@@H](N)CSSC[C@@H](C(=O)N[C@@H](CCCCN)C(=O)N[C@@H](CCCCN)C(=O)N[C@@H](Cc2ccc(O)cc2)C(=O)N[C@@H](CCCNC(=N)N)C(=O)N[C@@H](CO)C(=O)O)NC1=O) [SEQ ID NO: 1]”, for which the “Smad 1/5/8 phosphorylation and nuclear translocation” value in the series on Smad 1/5/8 is “induces Smad 1/5/8 phosphorylation and nuclear translocation”. The “glomerular lesion (sclerosis), tubular atrophy and fibrosis” value in series [1] (THR-123 p.o. 5 mg/Kg/day from week 6 to 9) was “improved glomerular lesion (sclerosis) and tubular atrophy and fibrosis”. In addition, in series [1] (week 6 to 9 treatment), the “Mac-1 positive macrophage accumulation” value is given as “inhibited accumulation of macrophage”; the blood urea nitrogen entry is recorded as “decreased”; the “cells exhibiting an EMT program (FSP-1 and E-cadherin positive)” value is listed as “significantly decreased the number of cells exhibiting an EMT program”; the “expression of fibronectin and type I collagen” value was “decreased expression of matrix components such as fibronectin and type I collagen”. The phospho-smad1/5 accumulation result in series [1] (week 6 to 9 treatment) is “increased accumulation of phospho-Smad1/5”. Besides, the “share of the injected dose in the beta phase” value in series [2] (iv) is given as 10%. For the same substance, in series [2] (iv, 125I-labeled), the alpha phase half-life result was “very short half-life”; the beta phase half-life is 55 to 58 min; the “decrease of THR-123 levels in plasma and whole blood within 5 minutes” value is about 90%. The “share of the injected dose in the alpha phase” value in series [2] (iv, tail vein, total radioactivity) was “approximately 90%”. Besides, the “clearance of radioactivity from the kidney” value in series [2] (oral, 24 hours after administration) is on record as “completely cleared”. Further, the “tissue distribution of radioactivity” value in series [2] (six hours after iv 6.25 mg/kg, listed as THR-123, 6.25 mg/kg) is “majority of the radioactivity was still localized in the kidney and bladder”.

(Values after US20160058829A1, “ANTI-FIBROTIC PEPTIDES AND THEIR USE IN METHODS FOR TREATING DISEASES AND DISORDERS CHARACTERIZED BY FIBROSIS” (Thrasos Innovation, Inc., priority 2011, published 2016).)
